US6653300B2, “Pyrazole compounds useful as protein kinase inhibitors” (Vertex Pharmaceuticals Incorporated, priority 2000, dated 2003)

Columns and labels:
GSK-3β (AA 1-420) = target: T1, GSK-3β (AA 1-420) (Homo sapiens, UniProt P49841); test: Ki determination for the inhibition of GSK-3 (coupled enzyme system); format: biochemical; conditions: 20 μM ATP, 20 nM GSK-3β, 30° C.
T1 construct: GSK-3β (AA 1-420)
Protocol: Compounds were screened for their ability to inhibit GSK-3β (AA 1-420) activity using a standard coupled enzyme system (Fox et al. (1998) Protein Sci. 7, 2249). Reactions were carried out in a solution containing 100 mM HEPES (pH 7.5), 10 mM MgCl2, 25 mM NaCl, 300 μM NADH, 1 mM DTT and 1.5% DMSO. Final substrate concentrations in the assay were 20 μM ATP (Sigma Chemicals, St Louis, Mo.) and 300 μM peptide (HSSPHQS (PO3H2) EDEEE, American Peptide, Sunnyvale, Calif.). Reactions were carried out at 30° C. and 20 nM GSK-3β. Final concentrations of the components of the coupled enzyme system were 2.5 mM phosphoenolpyruvate, 300 μM NADH, 30 μg/ml pyruvate kinase and 10 μg/ml lactate dehydrogenase.
An assay stock buffer solution was prepared containing all of the reagents listed above with the exception of ATP and the test compound of interest. The assay stock buffer solution (175 μl) was incubated in a 96 well plate with 5 μl of the test compound of interest at final concentrations spanning 0.002 μM to 30 μM at 30° C. for 10 min. […] The reaction was initiated by the addition of 20 μl of ATP (final concentration 20 μM). Rates of reaction were obtained using a Molecular Devices Spectramax plate reader (Sunnyvale, Calif.) over 10 min at 30° C. The Ki values were determined from the rate data as a function of inhibitor concentration.

T1 sequence (P49841 whole entry, the tested form may be a part): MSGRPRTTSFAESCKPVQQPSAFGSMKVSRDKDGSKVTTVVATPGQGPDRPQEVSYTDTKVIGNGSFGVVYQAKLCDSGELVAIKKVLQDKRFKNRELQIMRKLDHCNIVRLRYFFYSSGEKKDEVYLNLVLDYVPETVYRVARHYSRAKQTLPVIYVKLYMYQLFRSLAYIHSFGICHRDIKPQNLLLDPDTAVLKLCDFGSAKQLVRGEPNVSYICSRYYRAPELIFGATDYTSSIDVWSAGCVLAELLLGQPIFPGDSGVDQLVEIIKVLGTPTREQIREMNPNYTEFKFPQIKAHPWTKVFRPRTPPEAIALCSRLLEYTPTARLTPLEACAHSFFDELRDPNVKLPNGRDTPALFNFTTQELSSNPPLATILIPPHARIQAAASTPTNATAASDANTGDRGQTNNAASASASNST

SMILES	melting point [°C]	Ki (GSK-3β (AA 1-420)) [nM]
COC(=O)c1cccc(Sc2nc(Nc3cc(C4CC4)[nH]n3)cc(-c3ccccc3)n2)c1 [IIIa-2, (5-Cyclopropyl-2H-pyrazol-3-yl)-[2-(3-methoxycarbonyl-phenylylsulfanyl)-6-phenylpyrimidin-4-yl]-amine]	126 to 129	< 100
c1ccc2cc(Sc3nccc(Nc4cc(C5CC5)[nH]n4)n3)ccc2c1 [IIIa-3, (5-Cyclopropyl-2H-pyrazol-3-yl)-[2-(naphthalen-2-ylsulfanyl)-pyrimidin-4-yl]-amine]	248 to 250	< 100
Cc1nc(Sc2ccc3ccccc3c2)nc(Nc2cc(C3CC3)[nH]n2)c1C [IIIa-4, (5-Cyclopropyl-2H-pyrazol-3-yl)-[5,6-dimethyl-2-(naphthalen-2-ylsulfanyl)-pyrimidin-4-yl]-amine]	> 270	100 to 1000
Cc1cnc(Sc2ccc3ccccc3c2)nc1Nc1cc(C2CC2)[nH]n1 [IIIa-5, (5-Cyclopropyl-2H-pyrazol-3-yl)-[5-methyl-2-(naphthalen-2-ylsulfanyl)-pyrimidin-4-yl]-amine]	197	100 to 1000
Cc1cc(Nc2cc(C3CC3)[nH]n2)nc(Sc2ccc3ccccc3c2)n1 [IIIa-6, (5-Cyclopropyl-2H-pyrazol-3-yl)-[6-methyl-2-(naphthalen-2-ylsulfanyl)-pyrimidin-4-yl]-amine]	232	< 100
c1ccc2cc(Sc3nc(Nc4cc(C5CC5)[nH]n4)cc(N4CCOCC4)n3)ccc2c1 [IIIa-7, (5-Cyclopropyl-2H-pyrazol-3-yl)-[6-(morpholin-4-yl)-2-(naphthalen-2-ylsulfanyl)-pyrimidin-4-yl]-amine]	118 to 120	100 to 1000
CN1CCN(c2cc(Nc3cc(C4CC4)[nH]n3)nc(Sc3ccc4ccccc4c3)n2)CC1 [IIIa-8, (5-Cyclopropyl-2H-pyrazol-3-yl)-[6-(1-methylpiperazin-4-yl)-2-(naphthalen-2-ylsulfanyl)-pyrimidin-4-yl]-amine]	113 to 115	100 to 1000
Cc1cc(Nc2cc(-c3c(C)cccc3C)nc(Sc3ccc4ccccc4c3)n2)n[nH]1 [IIIa-9, [6-(2,6-Dimethylphenyl)-2-(naphthalen-2-ylsulfanyl)-pyrimidin-4-yl]-(5-methyl-2H-pyrazol-3-yl)-amine]	148 to 152	
Cc1cc(Nc2cc(-c3ccccc3C)nc(Sc3ccc4ccccc4c3)n2)n[nH]1 [IIIa-10, [6-(2-Methylphenyl)-2-(naphthalen-2-ylsulfanyl)-pyrimidin-4-yl]-(5-methyl-2H-pyrazol-3-yl)-amine]	211 to 214	100 to 1000
Cc1cc(Nc2cc(-c3ccccc3)nc(Sc3ccc4ccccc4c3)n2)n[nH]1 [IIIa-12, (5-Methyl-2H-pyrazol-3-yl)-[2-(naphthalen-2-ylsulfanyl)-6-phenyl-pyrimidin-4-yl]-amine]	237 to 239	
Cc1cc(Nc2cc(-c3ccccc3)nc(Sc3ccc(NC(=O)C4CC4)cc3)n2)n[nH]1 [IIIa-16, [2-(4-Cyclopropanecarbonylamino-phenylsulfanyl)-6-phenylpyrimidin-4-yl]-(5-methyl-2H-pyrazol-3-yl)-amine]	253 to 255	1000 to 7000
CCCS(=O)(=O)Nc1ccc(Sc2nc(Nc3cc(C)n[nH]3)cc(-c3ccccc3)n2)cc1 [IIIa-17, (5-Methyl-2H-pyrazol-3-yl)-{6-phenyl-2-[4-(propane-1-sulfonylamino)-phenylsulfanyl]-pyrimidin-4-yl}-amine]	232 to 235	< 100
CCS(=O)(=O)Nc1ccc(Sc2nc(Nc3cc(C)[nH]n3)cc(-c3ccccc3)n2)cc1 [IIIa-18, [2-(4-Ethanesulfonylamino-phenylsulfanyl)-6-phenyl-pyrimidin-4-yl]-(5-methyl-2H-pyrazol-3-yl)-amine]	251 to 254	< 100
Cc1cc(Nc2cc(-c3ccccc3)nc(Sc3ccc(NC(=O)CC(C)C)cc3)n2)n[nH]1 [IIIa-20, [2-(4-Isobutanecarbonylamino-phenyl-sulfanyl)-6-phenyl-pyrimidin-4-yl]-(5-methyl-2H-pyrazol-3-yl)-amine]	241 to 243	
COc1ccc(-c2cc(Nc3cc(C)[nH]n3)nc(Sc3ccc(NC(C)=O)cc3)n2)cc1 [IIIa-22, [2-(4-Acetamido-phenyl-sulfanyl)-6-(4-methoxyphenyl)-pyrimidin-4-yl]-(5-methyl-2H-pyrazol-3-yl)-amine]	241 to 245	100 to 1000
CC(=O)Nc1ccc(Sc2nc(Nc3cc(C)[nH]n3)cc(-c3cccc(NC(C)=O)c3)n2)cc1 [IIIa-23, [6-(3-Acetamidophenyl)-2-(4-acetamido-phenyl-sulfanyl)-pyrimidin-4-yl]-(5-methyl-2H-pyrazol-3-yl)-amine]	227 to 230	100 to 1000

SMILES	melting point [°C]	Ki (GSK-3β (AA 1-420)) [nM]
Cc1cc(Nc2cc(-c3ccccc3)nc(Sc3ccc(NS(=O)(=O)C(C)C)cc3)n2)n[nH]1 [IIIa-24, [2-(4-Isopropanesulfonylamino-phenyl-sulfanyl)-6-phenyl-pyrimidin-4-yl]-(5-methyl-2H-pyrazol-3-yl)-amine]	255 to 257	< 100
Cc1cc(Nc2cc(N3CCOCC3)nc(SCc3cccc(Cl)c3)n2)n[nH]1 [IIIa-26, [2-(3-Chloro-benzylsulfanyl)-6-morpholin-4-yl-pyrimidin-4-yl]-(5-methyl-2H-pyrazol-3-yl)-amine]	224 to 225	100 to 1000
COCCNc1cc(Nc2cc(C)[nH]n2)nc(SCc2cccc(Cl)c2)n1 [IIIa-27, [2-(3-Chloro-benzylsulfanyl)-6-(2-methoxy-ethylamino)-pyrimidin-4-yl]-(5-methyl-2H-pyrazol-3-yl)-amine]	101 to 102	< 100
COCc1cc(Nc2cc(C)[nH]n2)nc(Sc2ccc(C(=O)OC)cc2)n1 [IIIa-39, [2-(4-Methoxycarbonyl-phenyl-sulfanyl)-6-methoxymethyl-pyrimidin-4-yl]-(5-methyl-2H-pyrazol-3-yl)-amine]	204 to 205	
c1ccc(Nc2nc(Nc3cc(C4CC4)[nH]n3)cc(-c3ccccc3)n2)cc1 [IIIc-2, (5-Cyclopropyl-2H-pyrazol-3-yl)-(6-phenyl-2-phenylamino-pyrimidin-4-yl)-amine]	267 to 269	
Cc1cccc(Nc2nc(Nc3cc(C4CC4)[nH]n3)cc(-c3ccccc3)n2)c1 [IIIc-3, (5-Cyclopropyl-2H-pyrazol-3-yl)-[2-(3-methylphenylamino)-6-phenyl-pyrimidin-4-yl]-amine]	267 to 270	
c1ccc(-c2cc(Nc3cc(C4CC4)[nH]n3)nc(NCc3cccnc3)n2)cc1 [IIIc-5, (5-Cyclopropyl-2H-pyrazol-3-yl)-[6-phenyl-2-(pyridin-3-ylmethylamino)-pyrimidin-4-yl]-amine]	191 to 193	
Cc1cc(Nc2nc(Sc3nc4ccccc4[nH]3)nc3ccccc23)n[nH]1 [IIa-19, [2-(Benzimidazol-2-ylsulfanyl)-quinazolin-4-yl]-(5-methyl-2H-pyrazol-3-yl)-amine]	192 to 196	
c1ccc2c(Sc3nc(Nc4cc(C5CC5)n[nH]4)c4ccccc4n3)cccc2c1 [IIa-37, (5-Cyclopropyl-2H-pyrazol-3-yl)-[2-(naphthalen-1-ylsulfanyl)-quinazolin-4-yl]-amine]	271 to 273	
CC(=O)Nc1ccc(Sc2nc(Nc3cc(C)n[nH]3)c3cccc(F)c3n2)cc1 [IIa-78, [2-(4-Acetamidophenylsulfanyl)-8-fluoro-quinazolin-4-yl]-(5-methyl-2H-pyrazol-3-yl)-amine]	257 to 259	
Cc1cc(Nc2nc(N(CCO)c3ccccc3)nc3ccccc23)n[nH]1 [IIc-1, {2-[(2-Hydroxyethyl)phenylamino]-quinazolin-4-yl}-(5-methyl-2H-pyrazol-3-yl)-amine]	217	
Cc1cc(Nc2nc(Nc3ccc4cn[nH]c4c3)nc3ccccc23)n[nH]1 [IIc-9, [2-(1H-Indazol-6-ylamino)-quinazolin-4-yl]-(5-methyl-2H-pyrazol-3-yl)-amine]	> 250	
c1ccc(C2CC2c2nc(Nc3n[nH]c4ccccc34)c3ccccc3n2)cc1 (stereo not drawn) [IId-16, (1H-Indazol-3-yl)-[2-(2-phenyl-cyclopropyl)-quinazolin-4-yl]-amine]		100 to 1000
Fc1cccc2c(Nc3nc(C4CC4c4ccccc4)nc4ccccc34)n[nH]c12 (stereo not drawn) [IId-17, (7-Fluoro-1H-indazol-3-yl)-[2-(2-phenyl-cyclopropyl)-quinazolin-4-yl]-amine]		100 to 1000
Fc1ccc2[nH]nc(Nc3nc(C4CC4c4ccccc4)nc4ccccc34)c2c1 (stereo not drawn) [IId-18, (5-Fluoro-1H-indazol-3-yl)-[2-(2-phenyl-cyclopropyl)-quinazolin-4-yl]-amine]		100 to 1000
Cc1cc(Nc2nc(C3CC3c3ccccc3)nc3ccccc23)n[nH]1 (stereo not drawn) [IId-19, (5-Methyl-1H-pyrazol-3-yl)-[2-(2-phenyl-cyclopropyl)-quinazolin-4-yl]-amine]		< 100
